Like-named read-outs stand apart in the source and are kept apart here.
Experiments:
[1] = tested on: a variety of malignancies (e.g., prostate, brain, breast, pancreas, and colon); conditions: cited from earlier work
[2] = tested on: cell cycle progression at metaphase; conditions: cited from earlier work
[3] = 4-week subchronic toxicity study in dogs, D-24851 plasma pharmacokinetics; assay type: in vivo; conditions: for AUC / Cmax / Tmax / half-life / AUC(0-t): dog, plasma, iv; for AUC(0-t): read-out: AUC0-tlast,md
Description: Blood samples from all animals were taken at the following times: 1 h, 2 h, 4 h, 8 h, 16 h, 24 h, 36 h and 48 hours after application. The concentration levels of D-24851 were measured using HPLC.

[4] = cited from earlier work
[5] = tested on: tubulin; conditions: cited from earlier work

O=C(Nc1ccncc1)C(=O)c1cn(Cc2ccc(Cl)cc2)c2ccccc12 [Composition D-24851, N-(Pyridin-4-yl)-[1-(4-chlorobenzyl)-indol-3-yl]glyoxylic acid amide]
antitumor activity in vitro [1]: significant antitumor activity
effect on cell cycle progression [2]: selectively blocks cell cycle progression at metaphase
dose dependence of plasma concentrations ([3]; Composition 4 i.v. 2.61, 5.62 and 12.1 mg/kg): depend from the dose
plasma profiles day 1 versus day 27 ([3]; Composition 4 i.v., 4 weeks): of similar magnitude at day 1 and day 27 dosings
CL/f ([3]; Day 1, Composition 4 i.v. 5.62 mg/kg, Males, Meanar n=3): 38.1 mL/min/kg
CL/f ([3]; Day 1, Composition 4 i.v. 12.1 mg/kg, Females, Meanar n=3): 31.1 mL/min/kg
CL/f ([3]; Day 1, Composition 4 i.v. 12.1 mg/kg, Males, Meanar n=3): 29.5 mL/min/kg
CL/f ([3]; Day 27, Composition 4 i.v. 5.62 mg/kg, Males, Meanar n=3): 38.1 mL/min/kg
CL/f ([3]; Day 27, Composition 4 i.v. 12.1 mg/kg, Females, Meanar n=3): 31.1 mL/min/kg
CL/f ([3]; Day 27, Composition 4 i.v. 12.1 mg/kg, Males, Meanar n=3): 29.5 mL/min/kg
AUC ([3]; female, 2.61 mg/kg, Day 1, Composition 4 i.v. 2.61 mg/kg, Females, Meanar n=3, read-out: AUCτ, sd): 3400 ng·h/mL
Cmax ([3]; female, 2.61 mg/kg, Day 1, Composition 4 i.v. 2.61 mg/kg, Females, Meanar n=3, read-out: Cmax, sd): 210 ng/mL
Tmax ([3]; female, 2.61 mg/kg, Day 1, Composition 4 i.v. 2.61 mg/kg, Females, Meanar n=3, read-out: tmax, sd): 1.67 h
half-life ([3]; female, 2.61 mg/kg, Day 1, Composition 4 i.v. 2.61 mg/kg, Females, only for orientating, unsufficient curve fitting): 41 h
AUC ([3]; female, 2.61 mg/kg, Day 27, Composition 4 i.v. 2.61 mg/kg, Females, Meanar n=3, read-out: AUCτ, md): 1410 ng·h/mL
Cmax ([3]; female, 2.61 mg/kg, Day 27, Composition 4 i.v. 2.61 mg/kg, Females, Meanar n=3, read-out: Cmax, md): 148 ng/mL
Tmax ([3]; female, 2.61 mg/kg, Day 27, Composition 4 i.v. 2.61 mg/kg, Females, Meanar n=3, read-out: tmax, md): 2.33 h
half-life ([3]; female, 2.61 mg/kg, Day 27, Composition 4 i.v. 2.61 mg/kg, Females, only for orientating, insufficient curve fitting): 28.3 h
AUC(0-t) ([3]; female, 2.61 mg/kg): 1100 ng·h/mL
AUC ([3]; female, 5.62 mg/kg, Day 1, Composition 4 i.v. 5.62 mg/kg, Females, Meanar n=3, read-out: AUCτ, sd): 3540 ng·h/mL
Cmax ([3]; female, 5.62 mg/kg, Day 1, Composition 4 i.v. 5.62 mg/kg, Females, Meanar n=3, read-out: Cmax, sd): 279 ng/mL
half-life ([3]; female, 5.62 mg/kg, Day 1, Composition 4 i.v. 5.62 mg/kg, Females, only for orientating, unsufficient curve fitting): 20 h
half-life ([3]; female, 5.62 mg/kg, Day 27, Composition 4 i.v. 5.62 mg/kg, Females, Meanar n=3): 14.8 h
AUC ([3]; female, 5.62 mg/kg, Day 27, Composition 4 i.v. 5.62 mg/kg, Females, Meanar n=3, read-out: AUCτ, md): 2960 ng·h/mL
Cmax ([3]; female, 5.62 mg/kg, Day 27, Composition 4 i.v. 5.62 mg/kg, Females, Meanar n=3, read-out: Cmax, md): 315 ng/mL
Tmax ([3]; female, 5.62 mg/kg, Day 27, Composition 4 i.v. 5.62 mg/kg, Females, Meanar n=3, read-out: tmax, md): 2.33 h
AUC(0-t) ([3]; female, 5.62 mg/kg): 2740 ng·h/mL
Tmax ([3]; female, 5.62 mg/kg, read-out: tmax, sd): 2 h
half-life ([3]; female, 12.1 mg/kg, Day 1, Composition 4 i.v. 12.1 mg/kg, Females, Meanar n=3): 11.6 h
AUC ([3]; female, 12.1 mg/kg, Day 1, Composition 4 i.v. 12.1 mg/kg, Females, Meanar n=3, read-out: AUCsd): 8250 ng·h/mL
AUC ([3]; female, 12.1 mg/kg, Day 1, Composition 4 i.v. 12.1 mg/kg, Females, Meanar n=3, read-out: AUCτ, sd): 7670 ng·h/mL
Cmax ([3]; female, 12.1 mg/kg, Day 1, Composition 4 i.v. 12.1 mg/kg, Females, Meanar n=3, read-out: Cmax, sd): 860 ng/mL
Tmax ([3]; female, 12.1 mg/kg, Day 1, Composition 4 i.v. 12.1 mg/kg, Females, Meanar n=3, read-out: tmax, sd): 2.33 h
half-life ([3]; female, 12.1 mg/kg, Day 27, Composition 4 i.v. 12.1 mg/kg, Females, Meanar n=3): 24.2 h
AUC ([3]; female, 12.1 mg/kg, Day 27, Composition 4 i.v. 12.1 mg/kg, Females, Meanar n=3, read-out: AUCτ, md): 4850 ng·h/mL
Cmax ([3]; female, 12.1 mg/kg, Day 27, Composition 4 i.v. 12.1 mg/kg, Females, Meanar n=3, read-out: Cmax, md): 329 ng/mL
Tmax ([3]; female, 12.1 mg/kg, Day 27, Composition 4 i.v. 12.1 mg/kg, Females, Meanar n=3, read-out: tmax, md): 2.67 h
AUC(0-t) ([3]; female, 12.1 mg/kg): 4850 ng·h/mL
Cmax ([3]; male, 2.61 mg/kg, Day 1, Composition 4 i.v. 2.61 mg/kg, Males, Meanar n=3, read-out: Cmax, sd): 147 ng/mL
Tmax ([3]; male, 2.61 mg/kg, Day 1, Composition 4 i.v. 2.61 mg/kg, Males, Meanar n=3, read-out: tmax, sd): 1.67 h
half-life ([3]; male, 2.61 mg/kg, Day 27, Composition 4 i.v. 2.61 mg/kg, Males, Meanar n=3): 40.7 h
AUC ([3]; male, 2.61 mg/kg, Day 27, Composition 4 i.v. 2.61 mg/kg, Males, Meanar n=3, read-out: AUCτ, md): 1740 ng·h/mL
Cmax ([3]; male, 2.61 mg/kg, Day 27, Composition 4 i.v. 2.61 mg/kg, Males, Meanar n=3, read-out: Cmax, md): 224 ng/mL
Tmax ([3]; male, 2.61 mg/kg, Day 27, Composition 4 i.v. 2.61 mg/kg, Males, Meanar n=3, read-out: tmax, md): 1.33 h
AUC(0-t) ([3]; male, 2.61 mg/kg): 1450 ng·h/mL
half-life ([3]; male, 5.62 mg/kg, Day 1, Composition 4 i.v. 5.62 mg/kg, Males, Meanar n=3): 6.63 h
AUC ([3]; male, 5.62 mg/kg, Day 1, Composition 4 i.v. 5.62 mg/kg, Males, Meanar n=3, read-out: AUCsd): 2470 ng·h/mL
AUC ([3]; male, 5.62 mg/kg, Day 1, Composition 4 i.v. 5.62 mg/kg, Males, Meanar n=3, read-out: AUCτ, sd): 2590 ng·h/mL
Cmax ([3]; male, 5.62 mg/kg, Day 1, Composition 4 i.v. 5.62 mg/kg, Males, Meanar n=3, read-out: Cmax, sd): 241 ng/mL
Cmax ([3]; male, 5.62 mg/kg, Day 27, Composition 4 i.v. 5.62 mg/kg, Males, Meanar n=3, read-out: Cmax, md): 186 ng/mL
Tmax ([3]; male, 5.62 mg/kg, Day 27, Composition 4 i.v. 5.62 mg/kg, Males, Meanar n=3, read-out: tmax, md): 2.33 h
half-life ([3]; male, 5.62 mg/kg, Day 27, Composition 4 i.v. 5.62 mg/kg, Males, marked ** (footnote not given)): 5.1 h
AUC(0-t) ([3]; male, 5.62 mg/kg): 1320 ng·h/mL
AUC ([3]; male, 5.62 mg/kg, read-out: AUCτ, md): 1850 ng·h/mL
Tmax ([3]; male, 5.62 mg/kg, read-out: tmax, sd): 2 h
half-life ([3]; male, 12.1 mg/kg, Day 1, Composition 4 i.v. 12.1 mg/kg, Males, Meanar n=3): 8.74 h
AUC ([3]; male, 12.1 mg/kg, Day 1, Composition 4 i.v. 12.1 mg/kg, Males, Meanar n=3, read-out: AUCsd): 6980 ng·h/mL
AUC ([3]; male, 12.1 mg/kg, Day 1, Composition 4 i.v. 12.1 mg/kg, Males, Meanar n=3, read-out: AUCτ, sd): 6870 ng·h/mL
Cmax ([3]; male, 12.1 mg/kg, Day 1, Composition 4 i.v. 12.1 mg/kg, Males, Meanar n=3, read-out: Cmax, sd): 592 ng/mL
Tmax ([3]; male, 12.1 mg/kg, Day 1, Composition 4 i.v. 12.1 mg/kg, Males, Meanar n=3, read-out: tmax, sd): 2.67 h
half-life ([3]; male, 12.1 mg/kg, Day 27, Composition 4 i.v. 12.1 mg/kg, Males, Meanar n=3): 11.9 h
AUC ([3]; male, 12.1 mg/kg, Day 27, Composition 4 i.v. 12.1 mg/kg, Males, Meanar n=3, read-out: AUCτ, md): 5620 ng·h/mL
Cmax ([3]; male, 12.1 mg/kg, Day 27, Composition 4 i.v. 12.1 mg/kg, Males, Meanar n=3, read-out: Cmax, md): 435 ng/mL
Tmax ([3]; male, 12.1 mg/kg, Day 27, Composition 4 i.v. 12.1 mg/kg, Males, Meanar n=3, read-out: tmax, md): 2.67 h
AUC(0-t) ([3]; male, 12.1 mg/kg): 5560 ng·h/mL
neurological symptoms ([4]; animal experiments): No neurological symptoms
in-vivo antineoplastic efficacy ([4]; animals): high in-vivo antineoplastic efficacy
tolerability ([4]; preclinical experiments in rodents): very well tolerated at highly effective doses
overlap of binding site with tubulin-binding sites of vincristine or colchicine [5]: does not appear to overlap
effect on microtubules ([5]; in tumor cells, as well as in a cell-free system): destabilizes microtubules

Reference: patent publication US20140212495A1, “NANOPARTICULATE COMPOSITIONS OF TUBULIN INHIBITOR COMPOUNDS” (Ziopharm Oncology, Inc., priority 2004, published 2014)
